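Briefly, cells in 96-well plates were exposed to five compound concentrations for 48 h, and endpoints were estimated by linear interpolation. GI50 is the concentration that inhibits growth by half.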 Active and inactive are the calls of the source. Cut-off read from the data, not from the text of the source: active = GI50 up to about 1.1 µM and inactive = higher.
Experiments:
Experiment in all cases: NCI-60 cell line screen, 48 h
COLO 205 = system: COLO 205
HL-60 = system: HL-60
NCI-H23 = system: NCI-H23
NCI-H226 = system: NCI-H226
NCI-H522 = system: NCI-H522
SK-MEL-2 = system: SK-MEL-2
MOLT-4 = system: MOLT-4
DU-145 = system: DU-145
PC-3 = system: PC-3
UACC-62 = system: UACC-62
TK-10 = system: TK-10
OVCAR-3 = system: OVCAR-3
CCRF-CEM = system: CCRF-CEM
HCT-15 = system: HCT-15
T47D = system: T47D
LOX IMVI = system: LOX IMVI
NCI/ADR-RES = system: NCI/ADR-RES
ACHN = system: ACHN
Malme-3M = system: Malme-3M
SK-OV-3 = system: SK-OV-3

SMILES	GI50 (COLO 205)	GI50 (HL-60)	GI50 (NCI-H23)	GI50 (NCI-H226)	GI50 (NCI-H522)	GI50 (SK-MEL-2)	GI50 (MOLT-4)	GI50 (DU-145)	GI50 (PC-3)	GI50 (UACC-62)	GI50 (TK-10)	GI50 (OVCAR-3)	GI50 (CCRF-CEM)	GI50 (HCT-15) [µM]	GI50 (T47D)	GI50 (LOX IMVI)	GI50 (NCI/ADR-RES)	GI50 (ACHN)	GI50 (Malme-3M)	GI50 (SK-OV-3)
COc1cccc(C2SCC(=O)N2c2ccc(-n3c(-c4ccccc4)nc4ccccc4c3=O)cc2)c1OC (stereo not given)	> 100 µM (inactive)	> 100 µM (inactive)	> 100 µM (inactive)	> 87.9 µM (inactive)	> 100 µM (inactive)	> 100 µM (inactive)	> 100 µM (inactive)	> 100 µM (inactive)	> 100 µM (inactive)	> 38.5 µM (inactive)	> 100 µM (inactive)	> 88.7 µM (inactive)	> 100 µM (inactive)	> 100	31.6 µM (inactive)	> 100 µM (inactive)	> 100 µM (inactive)	> 100 µM (inactive)	> 100 µM (inactive)	> 100 µM (inactive)
CCC(C)OC(=O)/C(Br)=C1/OC(=O)c2ccccc2-c2ccccc21 (stereo not given)	18.3 µM (inactive)	> 100 µM (inactive)	50 µM (inactive)	55.2 µM (inactive)	18.7 µM (inactive)	24.2 µM (inactive)	6.85 µM (inactive)	> 100 µM (inactive)	31.8 µM (inactive)	19.4 µM (inactive)	19.4 µM (inactive)	27.4 µM (inactive)	4.78 µM (inactive)	18	58.2 µM (inactive)	18.2 µM (inactive)	20.4 µM (inactive)	40.1 µM (inactive)	29.7 µM (inactive)	45.6 µM (inactive)
O=C(O)CSc1nnc(COc2ccc(Cl)cc2)n1-c1ccccc1	> 100 µM (inactive)	> 100 µM (inactive)	> 100 µM (inactive)	> 100 µM (inactive)	> 100 µM (inactive)	> 100 µM (inactive)	> 100 µM (inactive)	> 100 µM (inactive)	> 100 µM (inactive)	> 100 µM (inactive)	> 100 µM (inactive)	> 100 µM (inactive)	> 100 µM (inactive)	> 100	> 100 µM (inactive)	> 100 µM (inactive)	> 100 µM (inactive)	> 100 µM (inactive)	> 100 µM (inactive)	> 100 µM (inactive)
Cc1cc(S(=O)(=O)Nc2nc(N)n[nH]2)c(Cl)cc1Cl	> 10 µM (inactive)	> 10 µM (inactive)	> 10 µM (inactive)	> 10 µM (inactive)	> 10 µM (inactive)	> 10 µM (inactive)	> 10 µM (inactive)	> 10 µM (inactive)	> 10 µM (inactive)	> 10 µM (inactive)	> 10 µM (inactive)	> 10 µM (inactive)	> 10 µM (inactive)	> 10	> 10 µM (inactive)	> 10 µM (inactive)	> 10 µM (inactive)	> 10 µM (inactive)	> 10 µM (inactive)	> 10 µM (inactive)
C/C=C(/C)C(=O)O[C@H]1C(C)=C[C@]23C(=O)[C@@H](C=C(COC(C)=O)[C@@H](O)[C@]12O)[C@H]1[C@@H](C[C@H]3C)[C@@]1(C)OC(=O)/C(C)=C\C	0.0596 µM (active)	0.094 µM (active)	2.42 µM (inactive)	3.07 µM (inactive)	1.8 µM (inactive)	3 µM (inactive)	0.0449 µM (active)	2.23 µM (inactive)	1.4 µM (inactive)	2.37 µM (inactive)	2.72 µM (inactive)	3.05 µM (inactive)	0.486 µM (active)	2.96	1.22 µM (inactive)	3.1 µM (inactive)	2.65 µM (inactive)	0.546 µM (active)	0.111 µM (active)	4.19 µM (inactive)
CC(O)C1(CNc2cc(Cl)nc(N)n2)CCCC1 (stereo not given)	> 100 µM (inactive)	> 100 µM (inactive)	90.4 µM (inactive)	> 100 µM (inactive)	> 100 µM (inactive)	> 100 µM (inactive)	> 100 µM (inactive)	> 100 µM (inactive)	> 100 µM (inactive)	> 100 µM (inactive)	> 100 µM (inactive)	> 100 µM (inactive)	> 100 µM (inactive)	> 100	> 100 µM (inactive)	> 100 µM (inactive)	> 100 µM (inactive)	> 100 µM (inactive)	> 100 µM (inactive)	> 100 µM (inactive)
CCC1(OC(=O)CNC)C(=O)OCc2c1cc1n(c2=O)Cc2cc3ccccc3nc2-1 (stereo not given)	0.148 µM (active)	< 0.01 µM (active)	< 0.01 µM (active)	< 0.01 µM (active)	< 0.0116 µM (active)	0.155 µM (active)	< 0.01 µM (active)	< 0.01 µM (active)	0.0269 µM (active)	< 0.01 µM (active)	1.29 µM (inactive)	0.0713 µM (active)	< 0.01 µM (active)	0.0942	< 0.01 µM (active)	< 0.01 µM (active)	< 0.01 µM (active)	< 0.01 µM (active)	0.0543 µM (active)	< 0.01 µM (active)
O=C(O)CN1CCNCCN(CC(=O)O)CCNCC1	6.64 µM (inactive)	3.41 µM (inactive)	44.4 µM (inactive)	> 64.7 µM (inactive)	14.7 µM (inactive)	> 100 µM (inactive)	5.14 µM (inactive)	> 100 µM (inactive)	19.9 µM (inactive)	38.8 µM (inactive)	> 100 µM (inactive)	> 100 µM (inactive)	4.8 µM (inactive)	9.29	> 48.2 µM (inactive)	79.4 µM (inactive)	> 100 µM (inactive)	> 100 µM (inactive)	56.9 µM (inactive)	20.1 µM (inactive)
CC(C)(C)C#CI1OC(=O)c2ccccc21	2.28 µM (inactive)	0.513 µM (active)	3.48 µM (inactive)	4.63 µM (inactive)	1.76 µM (inactive)	10.7 µM (inactive)	1.02 µM (active)	6.08 µM (inactive)	6.31 µM (inactive)	4.08 µM (inactive)	3.86 µM (inactive)	2.99 µM (inactive)	1.37 µM (inactive)	3.38	3.68 µM (inactive)	1.09 µM (active)	5.52 µM (inactive)	2.9 µM (inactive)	3.03 µM (inactive)	11.4 µM (inactive)
Cc1cc2nnc(C(N)=O)c(N)c2cc1C	> 100 µM (inactive)	> 100 µM (inactive)	> 100 µM (inactive)	> 100 µM (inactive)	20 µM (inactive)	64.7 µM (inactive)	> 100 µM (inactive)	> 100 µM (inactive)	> 100 µM (inactive)	> 100 µM (inactive)	> 100 µM (inactive)	> 100 µM (inactive)	> 100 µM (inactive)	> 100	> 100 µM (inactive)	> 100 µM (inactive)	> 100 µM (inactive)	> 100 µM (inactive)	38.4 µM (inactive)	42.1 µM (inactive)

From ChEMBL document CHEMBL1201862, “PubChem BioAssay data set” (2004)
